From US11708318B2, “Polymorphic forms of RAD1901-2HCL” (Radius Pharmaceuticals, Inc., priority 2017, dated 2023)
Entries after “also recorded” stand apart in the source; their conditions may differ. Read-outs that look alike come from different tables or passages of the source.

Assay: Solubility assessment of Sample 1 (majorly Form 1) in 24 solvent systems
Assay type: physicochemical
Conditions: for solubility: thermodynamic from solid
Protocol: Solubility assessment was carried out on the Sample 1 of RAD1901-2HCl (majorly Form 1 shown by XRPD) in 24 solvent systems in HPLC vials (sample IDs: A1 to A24). RAD1901-2HCl (25 mg) was treated with increasing volumes of solvent until the material fully dissolved or until a maximum of 60 vol had been used (Table 13).
After each addition of solvent, the system was stirred for 5 to 10 minutes at 25° C., then shaken at 50° C. for 5 to 10 minutes, and observations made. Samples were allowed to stand at room temperature for 5 min before the addition of a new aliquot of solvent. After the assessment was completed, the suspensions obtained were matured (maturation) and the clear solutions were cooled (cooling) and slowly evaporated (evaporation) as described below. All solids recovered from maturation, cooling and evaporation experiments were analyzed by high resolution XRPD.

With `CCNCCc1ccc(CN(CC)c2cc(OC)ccc2[C@@H]2CCc3cc(O)ccc3C2)cc1.Cl.Cl` [Sample 1] the solubility (acetonitrile, 50 °C, organic solvent or mixture, Acetonitrile, sample ID A19, read-out: Solubility assessment 10 vol.) was less than 100 mg/mL, the solubility (acetonitrile, 50 °C, organic solvent or mixture, Acetonitrile, sample ID A19, read-out: Solubility assessment 20 vol.) was less than 50 mg/mL and the solubility (acetonitrile, 50 °C, organic solvent or mixture, Acetonitrile, sample ID A19, read-out: Solubility assessment 40 vol.) was less than 25 mg/mL. For the same molecule, the solubility (acetonitrile, 50 °C, organic solvent or mixture, Acetonitrile, sample ID A19, read-out: Solubility assessment 60 vol.) was less than 16.7 mg/mL, the solubility (dichloromethane, 50 °C, organic solvent or mixture, Dichloromethane, sample ID A18, read-out: Solubility assessment 10 vol.) was less than 100 mg/mL and the solubility (dichloromethane, 50 °C, organic solvent or mixture, Dichloromethane, sample ID A18, read-out: Solubility assessment 20 vol.) was less than 50 mg/mL. It also gave a solubility (dichloromethane, 50 °C, organic solvent or mixture, Dichloromethane, sample ID A18, read-out: Solubility assessment 40 vol.) of less than 25 mg/mL, a solubility (dichloromethane, organic solvent or mixture, Dichloromethane, sample ID A18, read-out: Solubility assessment 60 vol.) of less than 16.7 mg/mL and a solubility (dimethyl sulfoxide, 50 °C, organic solvent or mixture, Dimethyl sulfoxide, sample ID A11, read-out: Solubility assessment 10 vol.) greater than 100 mg/mL. For the same molecule, the solubility (ethanol, 50 °C, organic solvent or mixture, Ethanol, sample ID A10, read-out: Solubility assessment 10 vol.) was less than 100 mg/mL, the solubility (ethanol, 50 °C, organic solvent or mixture, Ethanol, sample ID A10, read-out: Solubility assessment 20 vol.) was less than 50 mg/mL and the solubility (ethanol, 50 °C, organic solvent or mixture, Ethanol, sample ID A10, read-out: Solubility assessment 40 vol.) was less than 25 mg/mL. For the same molecule, the solubility (ethanol, organic solvent or mixture, Ethanol, sample ID A10, read-out: Solubility assessment 60 vol.) was less than 16.7 mg/mL, the solubility (ethyl acetate, 50 °C, organic solvent or mixture, Ethyl acetate, sample ID A3, read-out: Solubility assessment 10 vol.) was less than 100 mg/mL and the solubility (ethyl acetate, 50 °C, organic solvent or mixture, Ethyl acetate, sample ID A3, read-out: Solubility assessment 20 vol.) was less than 50 mg/mL. It also gave a solubility (ethyl acetate, 50 °C, organic solvent or mixture, Ethyl acetate, sample ID A3, read-out: Solubility assessment 40 vol.) of less than 25 mg/mL, a solubility (ethyl acetate, organic solvent or mixture, Ethyl acetate, sample ID A3, read-out: Solubility assessment 60 vol.) of less than 16.7 mg/mL and a solubility (isopropyl acetate, 50 °C, organic solvent or mixture, Isopropyl acetate, sample ID A4, read-out: Solubility assessment 10 vol.) of less than 100 mg/mL. For the same molecule, the solubility (isopropyl acetate, 50 °C, organic solvent or mixture, Isopropyl acetate, sample ID A4, read-out: Solubility assessment 20 vol.) was less than 50 mg/mL, the solubility (isopropyl acetate, 50 °C, organic solvent or mixture, Isopropyl acetate, sample ID A4, read-out: Solubility assessment 40 vol.) was less than 25 mg/mL and the solubility (isopropyl acetate, organic solvent or mixture, Isopropyl acetate, sample ID A4, read-out: Solubility assessment 60 vol.) was less than 16.7 mg/mL. The solubility (methanol, 50 °C, organic solvent or mixture, Methanol, sample ID A20, read-out: Solubility assessment 10 vol.) was 50 to 100 mg/mL, the solubility (methanol, 50 °C, organic solvent or mixture, Methanol, sample ID A20, read-out: Solubility assessment 20 vol.) was 50 to 100 mg/mL and the solubility (n-heptane, 50 °C, organic solvent or mixture, n-Heptane, sample ID A1, read-out: Solubility assessment 10 vol.) was less than 100 mg/mL. It also gave a solubility (n-heptane, 50 °C, organic solvent or mixture, n-Heptane, sample ID A1, read-out: Solubility assessment 20 vol.) of less than 50 mg/mL, a solubility (n-heptane, 50 °C, organic solvent or mixture, n-Heptane, sample ID A1, read-out: Solubility assessment 40 vol.) of less than 25 mg/mL and a solubility (n-heptane, organic solvent or mixture, n-Heptane, sample ID A1, read-out: Solubility assessment 60 vol.) of less than 16.7 mg/mL. The solubility (nitromethane, 50 °C, organic solvent or mixture, Nitromethane, sample ID A21, read-out: Solubility assessment 10 vol.) was less than 100 mg/mL, the solubility (nitromethane, 50 °C, organic solvent or mixture, Nitromethane, sample ID A21, read-out: Solubility assessment 20 vol.) was less than 50 mg/mL and the solubility (nitromethane, 50 °C, organic solvent or mixture, Nitromethane, sample ID A21, read-out: Solubility assessment 40 vol.) was less than 25 mg/mL. It also gave a solubility (nitromethane, organic solvent or mixture, Nitromethane, sample ID A21, read-out: Solubility assessment 60 vol.) of less than 16.7 mg/mL, a solubility (propyl acetate, 50 °C, organic solvent or mixture, Propyl acetate, sample ID A2, read-out: Solubility assessment 10 vol.) of less than 100 mg/mL and a solubility (propyl acetate, 50 °C, organic solvent or mixture, Propyl acetate, sample ID A2, read-out: Solubility assessment 20 vol.) of less than 50 mg/mL. For the same molecule, the solubility (propyl acetate, 50 °C, organic solvent or mixture, Propyl acetate, sample ID A2, read-out: Solubility assessment 40 vol.) was less than 25 mg/mL, the solubility (propyl acetate, organic solvent or mixture, Propyl acetate, sample ID A2, read-out: Solubility assessment 60 vol.) was less than 16.7 mg/mL and the solubility (tetrahydrofuran, 50 °C, organic solvent or mixture, Tetrahydrofuran, sample ID A17, read-out: Solubility assessment 10 vol.) was less than 100 mg/mL. The solubility (tetrahydrofuran, 50 °C, organic solvent or mixture, Tetrahydrofuran, sample ID A17, read-out: Solubility assessment 20 vol.) was less than 50 mg/mL, the solubility (tetrahydrofuran, 50 °C, organic solvent or mixture, Tetrahydrofuran, sample ID A17, read-out: Solubility assessment 40 vol.) was less than 25 mg/mL and the solubility (tetrahydrofuran, organic solvent or mixture, Tetrahydrofuran, sample ID A17, read-out: Solubility assessment 60 vol.) was less than 16.7 mg/mL. It also gave a solubility (toluene, 50 °C, organic solvent or mixture, Toluene, sample ID A15, read-out: Solubility assessment 10 vol.) of less than 100 mg/mL, a solubility (toluene, 50 °C, organic solvent or mixture, Toluene, sample ID A15, read-out: Solubility assessment 20 vol.) of less than 50 mg/mL and a solubility (toluene, 50 °C, organic solvent or mixture, Toluene, sample ID A15, read-out: Solubility assessment 40 vol.) of less than 25 mg/mL. For the same molecule, the solubility (toluene, organic solvent or mixture, Toluene, sample ID A15, read-out: Solubility assessment 60 vol.) was less than 16.7 mg/mL, the Solubility in water (water) was “highly soluble; also recorded: high solubility” and the solubility (water, 50 °C, water, Water, sample ID A12, read-out: Solubility assessment 10 vol.) was 50 to 100 mg/mL. It also gave a solubility (water, 50 °C, water, Water, sample ID A12, read-out: Solubility assessment 20 vol.) of 50 to 100 mg/mL.
